These results are taken from ChEMBL document CHEMBL1143084, “Synthesis and structure based optimization of novel Akt inhibitors” (Bioorg Med Chem Lett, 2008).

Usually IC50 stands for the concentration at which inhibition is half-maximal. By inhibition in vivo is commonly meant the share of the control response that was lost under treatment.

In experiment [1] the target is T1, RAC-alpha serine/threonine-protein kinase (Homo sapiens, UniProt P31749). In words: Inhibition of AKT1.
Experiment [2] deals with T1, RAC-alpha serine/threonine-protein kinase. Put plainly: Inhibition of AKT1 in human U87 cells after 2 hrs by ELISA. Format: cell-based, U-87MG ATCC. A general note: In an ELISA, binding on a coated surface is turned into a signal by an enzyme label.
Experiment [3] in a line: Inhibition of PKA.
Experiment [4] is described as follows: Antitumor activity against human myristoylated Akt1-activated rat Rat-1a cells xenografted mouse assessed as tumor growth inhibition at 50 mg/kg, qd, po for 10 days. Format: functional. The following applies: 240 h. (A xenograft is tissue or cells of one species grown in another, often human tumour cells in immunodeficient mice.)

T1 sequence (P31749 whole entry): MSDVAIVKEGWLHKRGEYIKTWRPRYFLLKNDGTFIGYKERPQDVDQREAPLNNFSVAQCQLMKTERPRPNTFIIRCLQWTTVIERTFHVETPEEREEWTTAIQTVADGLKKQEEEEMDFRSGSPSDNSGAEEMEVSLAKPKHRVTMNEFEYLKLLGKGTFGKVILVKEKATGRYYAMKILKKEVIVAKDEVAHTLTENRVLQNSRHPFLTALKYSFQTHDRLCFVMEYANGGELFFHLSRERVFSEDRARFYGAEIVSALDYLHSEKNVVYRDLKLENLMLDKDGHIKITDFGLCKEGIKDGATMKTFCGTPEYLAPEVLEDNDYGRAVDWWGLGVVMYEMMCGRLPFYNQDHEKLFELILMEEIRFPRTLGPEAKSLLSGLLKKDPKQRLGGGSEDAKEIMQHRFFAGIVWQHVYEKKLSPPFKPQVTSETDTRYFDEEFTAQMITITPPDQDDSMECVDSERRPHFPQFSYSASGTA

The molecule `c1ccc(-c2nnc[nH]2)c(Nc2ncnc3[nH]ccc23)c1` came in with an IC50 in experiment [1] of 210 nM.

In turn, `Cn1ccc2c(Nc3ccccc3-c3nnc[nH]3)ncnc21` displayed a concentration for half-maximal inhibition (IC50) in experiment [1] greater than 10000 nM.

As for `Clc1c[nH]c2ncnc(N3CC4(CCNCC4)c4ccccc43)c12`, the IC50 in experiment [1] worked out at 5.8 nM; in experiment [2], 64 nM.

As for `c1ccc2c(c1)N(c1ncnc3[nH]ccc13)CC21CCNCC1`, the IC50 in experiment [1] was determined as 5.3 nM; in experiment [2], 96 nM.

Consider `Fc1ccc2c(c1)C1(CCNCC1)CN2c1ncnc2[nH]ccc12`, for which the values for the IC50 in experiment [1] and in experiment [2] were 3.1 nM and 75 nM, respectively.

As for `c1ccc(Cc2c[nH]c3ncnc(N4CC5(CCNCC5)c5ccccc54)c23)cc1`, half-maximal inhibition in experiment [1] (IC50) was put at 1330 nM.

For `Cc1c[nH]c2ncnc(Nc3ccccc3-c3nnc[nH]3)c12`, the IC50 in experiment [1] was 425 nM.

For `CC(=O)N1CCC2(CC1)CN(c1ncnc3[nH]ccc13)c1ccc(F)cc12`, the IC50 in experiment [1] was determined as 2790 nM.

For the molecule `N#Cc1c[nH]c2ncnc(N3CC4(CCNCC4)c4ccccc43)c12`, the IC50 worked out at 2.4 nM in experiment [1], 50 nM in experiment [2] and 3.6 nM in experiment [3]. Moreover, in experiment [4], the inhibition in vivo at 50 mg/kg is 68%.

Take `Cc1nnc(-c2ccc(Cl)cc2Nc2ncnc3[nH]ccc23)[nH]1`: the IC50 in experiment [1] is greater than 10000 nM.

With `Clc1c[nH]c2ncnc(Nc3ccccc3-c3nnc[nH]3)c12`, in experiment [1], the 50% inhibitory concentration (IC50) is 318 nM.

Regarding `Cc1nnc(-c2cc(Cl)ccc2Nc2ncnc3[nH]ccc23)[nH]1`, in experiment [1], the IC50 was determined as 171 nM.

Turning to `CN1CCC2(CC1)CN(c1ncnc3[nH]ccc13)c1ccccc12`, the IC50 turned out to be 12.7 nM in experiment [1] and 136 nM in experiment [2].

In turn, `CS(=O)(=O)N1CCC2(CC1)CN(c1ncnc3[nH]ccc13)c1ccc(F)cc12` returned an IC50 in experiment [1] of 3190 nM.

For the molecule `c1nc(N2CCc3nc[nH]c3C2)c2cc[nH]c2n1`, the concentration for half-maximal inhibition (IC50) in experiment [1] turned out to be 294 nM.

In the case of `Cc1c[nH]c2ncnc(N3CC4(CCNCC4)c4ccccc43)c12`, the IC50 in experiment [1] turned out to be 4.8 nM; in experiment [2] it was 122 nM.

`Clc1ccc2c(c1)C1(CCNCC1)CN2c1ncnc2[nH]ccc12`: the figures for the IC50 in experiment [1] and in experiment [2] were 4.8 nM and 51 nM, respectively.
